Data on 8 molecules can be found in PubChem BioAssay (NCI).

Molecules are shown by their SMILES. Values joined by “and” are separate entries in the source; they are usually repeats but may differ in a detail not shown here. Equal entries are not always repeated.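 Five compound concentrations were applied to cells in 96-well plates for 48 hours; endpoints were derived by simple linear interpolation of the resulting dose-response curve. Abbreviation: GI50, concentration required for 50% inhibition of growth. TGI denotes the concentration required for complete inhibition of growth.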

Test systems include CAKI-1 renal; OVCAR-8 ovarian; SF-268 CNS; NCI-H460 lung; TK-10 renal; SR leukemia; COLO 205 colon; CCRF-CEM leukemia; A498 renal; M14 melanoma.
Test in all cases: NCI-60 cell line screen, 48 h

For the molecule `C[N+]1=C(/C=C\C=C\c2ccccc2)C(C)(C)c2ccccc21`, the GI50 in the experiment with CAKI-1 renal is 3.82 µM; in the experiment with OVCAR-8 ovarian it was 2.11 µM; with SF-268 CNS, 3.33 µM; with NCI-H460 lung it was 4.44 µM; with TK-10 renal, 4.47 µM; with SR leukemia, 0.925 µM. Also, the GI50 in the experiment on COLO 205 colon is 0.686 µM; in the experiment with CCRF-CEM leukemia, 2.36 µM; with A498 renal it was 3.08 µM; with M14 melanoma, 2.14 µM. Also, the TGI in the experiment on CAKI-1 renal turned out to be 13.5 µM; with OVCAR-8 ovarian, 10.5 µM; with SF-268 CNS it was 12.1 µM; with NCI-H460 lung, 17.2 µM; with TK-10 renal, 15.7 µM; with SR leukemia, 4.31 µM. Moreover, the TGI turned out to be 2.26 µM in the experiment on COLO 205 colon, 7.76 µM in the experiment with CCRF-CEM leukemia, 11.3 µM with A498 renal and 7.71 µM in the experiment with M14 melanoma.

Regarding `CCCSS[C@H]1NC(=O)[C@H]1NC(=O)COc1ccccc1`, the TGI with CAKI-1 renal came to 43.6 µM; in the experiment on OVCAR-8 ovarian, 27.6 µM; in the experiment with SF-268 CNS it was 40.5 µM; in the experiment with NCI-H460 lung, 31.4 µM; in the experiment on TK-10 renal it was 63.9 µM; in the experiment on SR leukemia, 19.6 µM. Also, the TGI with COLO 205 colon was 25 µM; in the experiment with CCRF-CEM leukemia, 19.1 µM; in the experiment with A498 renal, 70.3 µM; in the experiment with M14 melanoma, 24.4 µM.

In the case of `Cn1cc(-c2ccc(-c3ccc(C4=NC5(CC5)C(=O)N4C[C@@H]4CCN(C(=O)C5CC5)C4)cc3)cc2)cn1`, the GI50 was 12.6 µM in the experiment with CAKI-1 renal; 19.4 µM with OVCAR-8 ovarian; 11.9 µM with SF-268 CNS; 1.22 µM with NCI-H460 lung; 24 µM in the experiment with TK-10 renal; 1.68 µM in the experiment on SR leukemia. The GI50 was 15.6 µM in the experiment with COLO 205 colon, 6.01 µM in the experiment with CCRF-CEM leukemia, 2.16 µM in the experiment with A498 renal and 20.2 µM with M14 melanoma. Moreover, the TGI in the experiment on CAKI-1 renal was more than 100 µM; with OVCAR-8 ovarian, more than 100 µM; with SF-268 CNS, more than 100 µM; in the experiment on NCI-H460 lung, 18 µM; in the experiment with TK-10 renal it was 81.2 µM; with SR leukemia it was 95.3 µM. The TGI was 93.5 µM with COLO 205 colon, 42.5 µM in the experiment on CCRF-CEM leukemia, 23.7 µM in the experiment on A498 renal and more than 100 µM in the experiment on M14 melanoma.

Take `Cc1cnc(C(=O)Nc2nc3ccc(S(=O)(=O)Nc4ccc(C5(C(F)(F)F)CC5)cc4)cc3[nH]2)cn1`: the GI50 with CAKI-1 renal is 0.36 µM; in the experiment with OVCAR-8 ovarian, 0.722 µM; in the experiment on SF-268 CNS, 0.733 µM; with NCI-H460 lung, 0.351 µM; with TK-10 renal, 1.48 µM; in the experiment with SR leukemia it was 0.0777 µM. Moreover, the GI50 with COLO 205 colon was 0.414 µM; in the experiment on CCRF-CEM leukemia, 0.379 µM; in the experiment with A498 renal, 0.228 µM; in the experiment on M14 melanoma, 0.328 µM. In addition, the TGI in the experiment on CAKI-1 renal was 15.7 µM; in the experiment on OVCAR-8 ovarian, 23.4 µM; in the experiment with SF-268 CNS, 11.9 µM; in the experiment with NCI-H460 lung it was 3.95 µM; in the experiment on TK-10 renal, 12 µM; in the experiment with SR leukemia it was more than 39.5 µM. In addition, the TGI with COLO 205 colon is 9.35 µM; with CCRF-CEM leukemia, 22.8 µM; with A498 renal, 0.882 µM; with M14 melanoma, 2.74 µM.

For `Cc1ncc(C(=O)Nc2ccc(CN3CCN(C)CC3)c(C(F)(F)F)c2)cc1C#Cc1cnc(N)cc1C#N`, the GI50 in the experiment with CAKI-1 renal is 0.154 µM; in the experiment with OVCAR-8 ovarian, 1.3 µM; in the experiment on SF-268 CNS, 0.605 µM; with NCI-H460 lung, 0.417 µM; in the experiment on TK-10 renal, 1.7 µM; in the experiment on SR leukemia, 0.406 µM. The GI50 in the experiment with COLO 205 colon was 0.0538 µM; in the experiment with CCRF-CEM leukemia it was 0.549 µM; with A498 renal, 0.24 µM; in the experiment on M14 melanoma it was 0.049 µM. Besides, the TGI in the experiment with CAKI-1 renal was 1.38 µM; in the experiment on OVCAR-8 ovarian it was 5.35 µM; with SF-268 CNS, 3.33 µM; with NCI-H460 lung it was 2.84 µM; with TK-10 renal, 3.83 µM; in the experiment on SR leukemia, 6.27 µM. Also, the TGI was 2.32 µM in the experiment on COLO 205 colon, 3.2 µM with CCRF-CEM leukemia, 0.872 µM in the experiment with A498 renal and 0.4 µM in the experiment on M14 melanoma.

`COc1ccc2c(c1)C(=O)c1c-2n(CCCI)c(=O)c2cc([N+](=O)[O-])ccc12`: the GI50 was 0.472 µM and 0.309 µM with CAKI-1 renal; 0.266 µM and 0.338 µM with OVCAR-8 ovarian; 0.161 µM and 0.141 µM with SF-268 CNS; 0.0117 µM and 0.0296 µM in the experiment with NCI-H460 lung; 33.1 µM and 19.4 µM in the experiment on TK-10 renal; 0.005 µM in the experiment with SR leukemia. In addition, the GI50 was 1.77 µM and 1.12 µM in the experiment on COLO 205 colon; 0.0254 µM and 0.0153 µM in the experiment with CCRF-CEM leukemia; 0.609 µM and 0.157 µM with A498 renal; 0.133 µM and 0.057 µM in the experiment on M14 melanoma. Moreover, the TGI in the experiment with CAKI-1 renal is 48.6 µM and 6.86 µM; in the experiment on OVCAR-8 ovarian, 50 µM and > 100 µM; with SF-268 CNS, 44.4 µM and > 100 µM; in the experiment on TK-10 renal it was 50 µM and > 100 µM; in the experiment on SR leukemia it was 0.0888 µM and 0.143 µM; in the experiment on COLO 205 colon it was 21.6 µM and 55.3 µM. The TGI was 3.6 µM and 0.95 µM with A498 renal; 0.59 µM and 1.35 µM with M14 melanoma.

`CN(C)CC/[N+]([O-])=C(/c1ccccc1)C12CC3CC(CC(C3)C1)C2`: the TGI in the experiment on CAKI-1 renal was 31.5 µM; with OVCAR-8 ovarian, 31.7 µM; with SF-268 CNS it was 35.9 µM; in the experiment with NCI-H460 lung, 35.1 µM; with TK-10 renal it was 30.7 µM; in the experiment on SR leukemia it was 43.9 µM. Moreover, the TGI in the experiment with COLO 205 colon was determined as 30.3 µM; with CCRF-CEM leukemia it was 34.3 µM; in the experiment with A498 renal, 32.6 µM; with M14 melanoma, 26.8 µM.

Take `O=C1C(Cl)=C(NCc2ccco2)C(=O)c2ccccc21`: the GI50 in the experiment with CAKI-1 renal is 58.1 µM; in the experiment with OVCAR-8 ovarian, 22.5 µM; with SF-268 CNS, 22.5 µM; in the experiment with NCI-H460 lung, 4.78 µM; in the experiment with TK-10 renal, 22.1 µM; in the experiment on SR leukemia, 20.6 µM. Also, the GI50 was 9.11 µM with COLO 205 colon, 9.88 µM in the experiment on CCRF-CEM leukemia, 17.7 µM in the experiment with A498 renal and 4.31 µM with M14 melanoma. The TGI was more than 100 µM in the experiment with CAKI-1 renal; more than 100 µM with OVCAR-8 ovarian; 81.9 µM with SF-268 CNS; more than 100 µM with NCI-H460 lung; more than 100 µM in the experiment with TK-10 renal; more than 100 µM in the experiment on SR leukemia. Further, the TGI with COLO 205 colon is 26.4 µM; with CCRF-CEM leukemia, more than 100 µM; with A498 renal, 59.2 µM; in the experiment on M14 melanoma it was 12.1 µM.
